Entries after “also recorded” stand apart in the source; their conditions may differ.
Experiments:
[1] = tested on: rat brain bearing U251, RG2 or U87 tumors; assay: In vivo ^23Na-MRSI peak separation in tumor-bearing rat brain
From the text: Before TmDOTP^5− delivery, there was a single ^23Na peak at 0 ppm corresponding to Na^+T, observed ubiquitously both inside and outside the tumor. Upon TmDOTP^5− delivery, compartmental ^23Na peak separation was achieved. Within the tumor, the compromised BBB permitted greater TmDOTP^5− extravasation and accumulation in the interstitial space, explicitly yielding three separate ^23Na peaks emerging from the original single ^23Na resonance. […] In the tumor, the most-shifted peak was Na^+b because the blood compartment had the largest TmDOTP^5−, which was corroborated by removing blood samples from the animal and observing the same chemical shift in vitro (FIG. 2D). In the tumor, the intermediate peak in the middle corresponded to the interstitial Na^+e resonance (FIG. 2B). The splitting was also evident outside of the tumor (i.e., in healthy tissue) where TmDOTP^5− extravasated to a much lesser extent compared to tumor tissue (FIG. 2C). The Na^+b peak was still most-shifted, whereas the Na^+i and Na^+e peaks were less discernible. When there was significant overlap between adjacent peaks, instead of peak integrals the peak amplitudes were used to discriminate signals. The shifted bulk Na^+e peak in healthy tissue confirmed that whatever degree of TmDOTP^5− extravasation occurred was sufficient to affect the interstitial ^23Na signals, albeit less pronounced than tumoral Na^+e. The unshifted Na^+i resonance was still at 0 ppm, but partially eclipsed by the bulk Na^+e peak. These same patterns inside/outside the tumor were observed throughout the brain.
The in vivo protocol was approved by the Institutional Animal Care & Use Committee of Yale University, and all procedures were performed in accordance with these enforced guidelines and regulations, and in compliance with the ARRIVE guidelines. Rats (athymic/nude and Fischer 344) were purchased through Yale University vendors. U251, U87 and RG2 GBM cell lines were purchased from American Type Culture Collections (Manassas, VA, USA). The U251, U87, and RG2 cells were cultured and grown in a 5% CO2 incubator at 37° C. in either low-glucose (U251 cells) or high-glucose (U87 and RG2 cells) Dulbecco's Modified Eagle's Medium (DMEM) (Thermo Fisher Scientific, Waltham, MA, USA) with 10% fetal bovine serum (FBS) and 1% penicillin-streptomycin. Cells for tumor inoculation were harvested upon reaching at least 80% confluence and were prepared in FBS-free DMEM. Athymic/nude rats were injected intracranially with 2-5×10^6 tumor cells either from the U251 (n=6) or the U87 (n=8) cell line (5-μL aliquot) while placed in a stereotactic holder on a heating pad. Fischer 344 rats were injected with 1.25×10^3 RG2 cells (n=8). During the procedure, animals were anesthetized via isoflurane (Isothesia) inhalation (3-4%), purchased from Covetrus (Portland, ME, USA). Dissection was performed to the cranium, and a hole was drilled into the skull to allow for stereotactic needle insertion. Injections were performed using a 10-μL Hamilton syringe with a 26G needle into the right striatum for majority of the experiments, 3 mm to the right of the bregma and 3 mm below the dura. The cells were injected steadily at 1 μL/min over 5 min and the needle was left in place for an additional 5 min post-injection. The syringe was then gradually removed to preclude any backflow of cells. The hole in the skull was sealed with bone wax, and the incision site was sutured after removal of the syringe. Animals were given bupivacaine (2 mg/kg at incision site) and carprofen (5 mg/kg, subcutaneously) during the tumor inoculation to relieve pain. Carprofen was subsequently given once per day for two days post-inoculation.
Rats were weighed daily and kept on a standard diet of rat chow and water. Tumor growth was monitored every 3-4 days using ^1H-MRI under isoflurane anesthesia. When the tumor had reached a minimum mean diameter of 3 mm at 20-24 days post-injection, each animal was imaged using ^1H-MRI and ^23Na-MRSI. […]

U87-bearing rat brain = assay: In vivo ^23Na-MRSI line broadening in glioma models; details: glioma models, after agent infusion
From the text: FIGS. 10C-10F illustrates images according to certain embodiments of the disclosure. […] However, the ^23Na linewidth analysis by TmDOTP^5− is confounded by its high ^23Na shiftability. This peak separation in vivo overestimates the full-width at half-maximum (FWHM) calculations and exaggerates the measured ^23Na linewidths.
Slice 1 is most superficial, and slice 3 is the deepest. The tumor outline is depicted in white in all columns.
This establishes GdDOTP^5−-induced ^23Na linewidth broadening as a potential surrogate marker for the altered Na^+ biodistribution within tumors. Thus, in brain tumor models, TmDOTP^5− with ^23Na-NMR can separate Na^+ in intracellular, blood, and interstitial pools, while GdDOTP^5− can distinguish Na^+ within intracellular and extracellular (i.e., blood and interstitial) pools.
Because the majority of the present studies looked at ^23Na chemical shift, the line broadening capabilities of these paramagnetic agents were also interrogated. […] This is due to the high magnetic moment of Gd^3+ which contributes to some degree of anisotropy to the paramagnetic susceptibility. […] Crucially, this family of paramagnetic agents has allowed to insightful probing of the tumor microenvironment and drawing of significant conclusions about tumor aggressiveness based on spectroscopic analysis.

[2] = Comparison of ^23Na shiftability and broadening potential of DOTP agents; assay type: physicochemical
[3] = cited from earlier work
[4] = doses presently being used for preclinical studies; cited from earlier work
[5] = intravenous ~1 μmol/g, all tumors
[6] = rats bearing RG2 and U87 tumors, tumor voxels

Compound: O=P([O-])([O-])CN1CCN(CP(=O)([O-])[O-])CCN(CP(=O)([O-])[O-])CCN(CP(=O)([O-])[O-])CC1.[Na+].[Na+].[Na+].[Na+].[Na+].[Tm+3] [TmDOTP^5−, sodium thulium (III) 1,4,7,10-tetraazacyclododecane-1,4,7,10-tetrakis(methylenephosphonate)]
- observed ^23Na linewidths in vivo ([1]; after TmDOTP^5−): ~0.4 ppm
- ^23Na blood peak shift, in vitro analysis of blood samples ([1]; blood samples from the U251 tumor-bearing rat): around 2 ppm
- TmDOTP^5− concentration in the tumor vasculature ([1]; from range of shifts observed and shiftability 2.77 ppm/mM): no more than 0.7 mM
- separation of blood and interstitial ^23Na peaks ([1]; intravenous ~1 μmol/g): ~1.5 ppm
- ^23Na shift in blood [1, 5]: ~2 ppm
- ^23Na shifts in tumor tissue [1, 5]: 0.5-1 ppm
- ^23Na shift of blood sodium (Na^+b) peak ([1]; rat bearing U251 tumor, after TmDOTP^5− delivery): around 2 ppm
- ^23Na shift of intracellular sodium (Na^+i) peak ([1]; rat bearing U251 tumor, ~1 μmol/g BW): 0 ppm
- Na^+e shift in the tumor ([1]; rats bearing RG2 and U87 tumors): 0.5-1 ppm
- Na^+b shift [1, 6]: around 2 ppm
- Na^+i shift [1, 6]: 0 ppm
- ^23Na line broadening in tumor versus normal tissue (U87-bearing rat brain): most prominent within the tumor; also recorded: substantial ^23Na line broadening within tumor models compared to normal tissue
- broadening potential (sensitivity of linewidth to agent concentration), words [2]: high broadening potentials
- shiftability (sensitivity of ^23Na chemical shift to agent concentration), words [2]: high shiftability
- TmDOTP^5− in the cortex and subcortex ([3]; infusion protocol with probenecid, without renal ligation): ~0.1 μmol TmDOTP^5−/g BW
- in vivo concentrations in blood and interstitial spaces ([3]; rat, in vivo): 1 to 2 mM
- toxicity [4]: non-toxic

From patent publication US12569170B2, “Paramagnetic sodium NMR macrocyclic-based biosensors, and associated methods” (Yale University, priority 2021, dated 2026)
